Tests used:
Assay type in all cases: biochemical
ΔPH-Akt2 = biological target: T1, ΔPH-Akt2 (Homo sapiens, UniProt P31751); test: Akt kinase assay, GSK3 peptide substrate, Akt2 delta PH; conditions: pleckstrin homology domain deleted Akt2, GSK3 peptide substrate
T1 construct: PCR was performed using the full length Akt2 gene as template; biotin tag (from pS2neo vector); made in house; host or cells: Drosophila S2 cells

ΔPH-Akt1 = biological target: T2, ΔPH-Akt1 (Homo sapiens, UniProt P31749); test: Akt kinase assay, GSK3 peptide substrate, Akt1 delta PH; conditions: pleckstrin homology domain deleted Akt1, GSK3 peptide substrate
T2 construct: PCR deletion mutagenesis was done using the full length Akt1 gene in the pS2neo vector as template; biotin tag (from pS2neo vector); made in house; host or cells: Drosophila S2 cells

Human Akt2 = biological target: T3, Human Akt2 (Homo sapiens, UniProt P31751); test: Akt kinase assay, GSK3 peptide substrate, Akt2; conditions: activated full length Akt2, GSK3 peptide substrate
T3 construct: a middle T tag was added to the 5′ end of the full length Akt2 using the PCR primer; biotin tag (from pS2neo vector); made in house; host or cells: Drosophila S2 cells
Description: (§1) Akt and Akt pleckstrin homology domain deletions were activated (Alessi et al. Current Biology 7:261-269) in a reaction containing 10 nM PDK1 (Upstate Biotechnology, Inc.), lipid vesicles (10 μM phosphatidylinositol-3,4,5-trisphosphate—Metreya, Inc, 100 μM phosphatidylcholine and 100 μM phosphatidylserine—Avanti Polar lipids, Inc.) and activation buffer (50 mM Tris pH7.4, 1.0 mM DTT, 0.1 mM EGTA, 1.0 μM Microcystin-LR, 0.1 mM ATP, 10 mM MgCl2, 333 μg/ml BSA and 0.1 mM EDTA). The reaction was incubated at 22° C. for 4 hours. Aliquots were flash frozen in liquid nitrogen.
(§2) Activated AKT isoforms and pleckstrin homology domain deletion constructs were assayed utilizing a GSK-derived biotinylated peptide substrate. The extent of peptide phosphorylation was determined by Homogeneous Time Resolved Fluorescence […] using a lanthanide chelate (Lance)-coupled monoclonal antibody specific for the phosphopeptide in combination with a streptavidin-linked allophycocyanin (SA-APC) fluorophore which will bind to the biotin moiety on the peptide. […]
(§3) The reaction is assembled by adding 16 μL of the ATP/MgCl2 working solution to the appropriate wells of a 96-well microtiter plate. […] The stopped reactions were incubated at room temperature for at least 30 min and then read on the Discovery instrument. […]

Human Akt3 = biological target: T4, Human Akt3 (Homo sapiens, UniProt Q9Y243); test: Akt kinase assay, GSK3 peptide substrate, Akt3; conditions: activated full length Akt3, GSK3 peptide substrate
T4 construct: a middle T tag was added to the 5′ end of the full length Akt3 clone; biotin tag (from pS2neo vector); made in house; host or cells: Drosophila S2 cells
Description: as §1, §2, §3

Human Akt1 = biological target: T5, Human Akt1 (Homo sapiens, UniProt P31749); test: Akt kinase assay, GSK3 peptide substrate, Akt1; conditions: activated full length Akt1, GSK3 peptide substrate
T5 construct: a middle T tag was added to the 5′ end of the full length Akt1 gene; biotin tag (from pS2neo vector); made in house; host or cells: Drosophila S2 cells
Description: as §1, §2, §3

PKA catalytic subunit = biological target: T6, PKA catalytic subunit (Bos taurus, UniProt P00517); test: PKA assay (counter screen); conditions: Kemptide substrate; read-out: Counter screens IC50 (μM) PKA
T6 construct: purchased UBI (Upstate Biotechnology, Inc.) 14-114
Description: The reactions were stopped by adding 50 μl of 100 mM EDTA and 100 mM sodium pyrophosphate and mixing.
After the final wash, the filters were allowed to air dry.

PKC = PKC assay (counter screen); conditions: Myelin basic protein substrate; read-out: Counter screens IC50 (μM) PKC
Description: Each PKC assay consists of the following components:
The assays were assembled in 96 deep-well assay plates. Inhibitor or vehicle (10 μl) was added to 5.0 μl of ^33P-ATP. Reactions were initiated with the addition of the PKC/Myelin Basic Protein working solution and mixing. Reactions were incubated at 30° C. for 20 min. The reactions were stopped by adding 50 μl of 100 mM EDTA and 100 mM sodium pyrophosphate and mixing. Phosphorylated Mylein Basic Protein was collected on PVDF membranes in 96 well filter plates and quantitated by scintillation counting.

T2 sequence (P31749 with tags, fused parts or gaps): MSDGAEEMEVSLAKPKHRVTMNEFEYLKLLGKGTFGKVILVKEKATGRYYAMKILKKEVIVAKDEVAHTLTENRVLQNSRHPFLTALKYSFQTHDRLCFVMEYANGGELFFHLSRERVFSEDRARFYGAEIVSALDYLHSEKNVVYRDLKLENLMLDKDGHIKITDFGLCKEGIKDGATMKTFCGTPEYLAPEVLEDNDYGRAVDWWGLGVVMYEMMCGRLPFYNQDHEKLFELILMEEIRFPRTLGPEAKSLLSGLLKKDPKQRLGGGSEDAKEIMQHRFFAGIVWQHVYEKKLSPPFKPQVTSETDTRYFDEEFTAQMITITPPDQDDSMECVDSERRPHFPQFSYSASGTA
T4 sequence (Q9Y243 whole entry): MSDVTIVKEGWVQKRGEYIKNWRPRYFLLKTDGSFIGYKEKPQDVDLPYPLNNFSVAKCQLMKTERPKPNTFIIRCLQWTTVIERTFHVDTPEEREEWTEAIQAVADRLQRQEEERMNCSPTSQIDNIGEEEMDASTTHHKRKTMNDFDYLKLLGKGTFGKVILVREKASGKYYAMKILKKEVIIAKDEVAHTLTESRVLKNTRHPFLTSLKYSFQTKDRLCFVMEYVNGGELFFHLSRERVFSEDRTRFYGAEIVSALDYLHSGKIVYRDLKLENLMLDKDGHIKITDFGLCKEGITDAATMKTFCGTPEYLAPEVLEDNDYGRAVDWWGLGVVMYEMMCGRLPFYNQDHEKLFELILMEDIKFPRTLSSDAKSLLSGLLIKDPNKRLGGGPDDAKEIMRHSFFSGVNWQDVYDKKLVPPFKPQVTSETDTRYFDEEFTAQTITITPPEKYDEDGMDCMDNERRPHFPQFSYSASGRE
T3 sequence (P31751 whole entry): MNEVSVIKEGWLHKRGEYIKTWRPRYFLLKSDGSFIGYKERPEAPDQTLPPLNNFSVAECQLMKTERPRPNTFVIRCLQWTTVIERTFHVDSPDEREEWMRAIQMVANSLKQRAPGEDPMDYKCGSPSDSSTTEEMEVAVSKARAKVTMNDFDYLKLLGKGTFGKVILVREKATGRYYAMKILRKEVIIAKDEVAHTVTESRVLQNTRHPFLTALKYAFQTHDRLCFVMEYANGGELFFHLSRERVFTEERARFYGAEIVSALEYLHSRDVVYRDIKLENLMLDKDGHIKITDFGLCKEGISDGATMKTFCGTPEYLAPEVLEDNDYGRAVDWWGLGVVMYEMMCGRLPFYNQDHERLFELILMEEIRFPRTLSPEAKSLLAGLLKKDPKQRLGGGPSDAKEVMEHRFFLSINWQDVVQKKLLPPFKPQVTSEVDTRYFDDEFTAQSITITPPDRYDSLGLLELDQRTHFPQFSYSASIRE
T1 sequence (P31751 with tags, fused parts or gaps): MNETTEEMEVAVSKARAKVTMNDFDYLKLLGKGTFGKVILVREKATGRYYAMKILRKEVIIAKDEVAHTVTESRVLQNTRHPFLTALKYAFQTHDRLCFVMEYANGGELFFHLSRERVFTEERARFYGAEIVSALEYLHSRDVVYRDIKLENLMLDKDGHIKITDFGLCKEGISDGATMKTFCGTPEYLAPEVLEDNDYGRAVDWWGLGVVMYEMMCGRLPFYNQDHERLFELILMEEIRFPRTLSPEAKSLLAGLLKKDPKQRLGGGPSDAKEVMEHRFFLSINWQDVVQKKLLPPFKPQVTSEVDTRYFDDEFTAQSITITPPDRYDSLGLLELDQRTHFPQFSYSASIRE
T5 sequence (P31749 whole entry): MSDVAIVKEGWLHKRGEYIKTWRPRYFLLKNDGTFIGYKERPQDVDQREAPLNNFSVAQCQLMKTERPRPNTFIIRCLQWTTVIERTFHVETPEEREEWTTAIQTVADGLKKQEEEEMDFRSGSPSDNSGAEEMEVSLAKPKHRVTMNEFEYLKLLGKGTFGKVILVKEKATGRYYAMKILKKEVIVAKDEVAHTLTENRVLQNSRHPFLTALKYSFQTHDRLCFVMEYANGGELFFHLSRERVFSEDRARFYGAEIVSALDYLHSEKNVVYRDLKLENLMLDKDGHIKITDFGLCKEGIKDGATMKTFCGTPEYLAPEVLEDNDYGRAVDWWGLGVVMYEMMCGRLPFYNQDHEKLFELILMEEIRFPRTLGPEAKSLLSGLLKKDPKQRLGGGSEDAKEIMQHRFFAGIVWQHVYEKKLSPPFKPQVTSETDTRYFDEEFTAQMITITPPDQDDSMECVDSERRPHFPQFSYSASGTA

Compound | IC50 (ΔPH-Akt2) [µM] | IC50 (ΔPH-Akt1) [µM] | IC50 (Human Akt2) [µM] | IC50 (Human Akt3) [µM] | IC50 (Human Akt1) [µM] | IC50 (PKA catalytic subunit) [µM] | IC50 (PKC) [µM]
CN(C)CC(C)(C)CNc1nn2c(-c3ccccc3)nnc2cc1C1CCC1 [Compound 1, N′-(7-Cyclobutyl-3-phenyl-[1,2,4]triazolo[4,3-b]pyridazin-6-yl)-2,2,N,N-tetramethyl-propane-1,3-diamine] | > 100 |  |  |  |  |  | 
OCCOc1nn2c(-c3ccccc3)nnc2cc1-c1ccccc1 [Compound 8, 6-(2-Hydroxyethyl)oxy-3,7-diphenyl-[1,2,4]triazolo[4,3-b]pyridazine] |  | > 50 | > 50 | > 50 |  |  | 
COc1cc(-c2[nH]c(C3CCCN3C)nc2-c2ccncc2)ccc1Cl (stereo not shown) [Compound 19-11, 1-methyl-2-[5-(4-chloro-3-methoxyphenyl)-4-pyridin-4-yl-1H-imidazol-2-yl]-pyrrolidine] |  | > 50 | > 50 | 1.4 | 51.7 | 0.076 | 0.65

— patent US20060142178A1, “Method of treating cancer” (priority 2002, published 2006)
